# Assay results as given in patent US20260097026A1, “INHIBITION OF AORTIC VALVE CALCIFICATION” (priority 2022, published 2026).
# System: Human valve interstitial cells (VIC)
# Experiment: Calcification inhibition in human valve interstitial cells (VIC); staining followed by spectroscopy
# Format: cell-based
# Conditions: VIC isolated from human aortic valves; calcification induced; test substance contacted during or after induced calcification; degree of calcification by staining and spectroscopy (FIG. 2, FIG. 3)
# Description: Human valve interstitial cells (VIC) are isolated from human aortic valves harvested during surgery for use in calcification inhibitor testing. After isolation, calcification is induced in the cells. The activity of potential inhibitors is assayed by contacting the VIC cells with the test substance during or after the induced calcification. The degree of calcification is measured by staining followed by spectroscopy. FIG. 1 provides photomicrographs of control cells (no induced calcification, left panel), cells where calcification is induced (middle panel), and calcification in the presence of an inhibitor (right panel).
row,Compound,inhibition of calcification
1,"COCCCOc1ccnc(C[S+]([O-])c2nc3ccccc3[nH]2)c1C (stereo not shown) [Rabeprazole, rabeprazole]",inhibition of calcification
2,COc1ccnc(C[S+]([O-])c2nc3cc(OC(F)F)ccc3[nH]2)c1OC (stereo not shown) [pantoprazole],inhibition of calcification
3,COc1ccc2[nH]c([S+]([O-])Cc3ncc(C)c(OC)c3C)nc2c1 (stereo not shown) [omeprazole],inhibition of calcification
4,Cc1c(OCC(F)(F)F)ccnc1C[S+]([O-])c1nc2ccccc2[nH]1 (stereo not shown) [lansoprazole],inhibition of calcification
